From patent US10208003B2, “Synthesis of amine substituted 4,5,6,7-tetrahydrobenzothiazole compounds” (KNOPP BIOSCIENCES LLC, priority 2011, dated 2019)

For CCCN[C@@H]1CCc2nc(N)sc2C1.Cl.Cl [Form B, (R)-(+)-2-amino-4,5,6,7-tetrahydro-6-(n-propylamino)benzothiazole dihydrochloride], the “polymorphic form conversion under exposure to humidity and/or moisture” value was “converts to Form A”.
